Values after ≈ are worked out from the molar mass of the structure shown. Like-named read-outs stand apart in the source and are kept apart here.
Tests used:
Format in all cases: cell-based
[1] = system: Escherichia coli (carbapenem-resistant clinical isolate; ATCC25922); assay: MIC by micro broth dilution (CLSI), Escherichia coli; conditions: Escherichia coli
Text: (§1) The test bacteria were one strain of clinically isolated carbapenem-resistant Escherichia coli, two strains of carbapenem-resistant Acinetobacter baumannii, two strains of methicillin-resistant Staphylococcus aureus, two strains of sensitive Staphylococcus aureus, and 7 strains of Klebsiella pneumoniae. Duplicate strains isolated from the same patient were eliminated. There were also […] quality control strains Escherichia coli ATCC25922, Acinetobacter baumannii ATCC19606, Staphylococcus aureus ATCC29213, Klebsiella pneumoniae ATCC BAA-1705, ATCC 43816, ATCC BAA-2472, ATCC-BAA-1898, ATCC-BAA-1899, NCTC 13440 and ATCC-BAA-2470. There were 24 strains in total.
(§2) According to the recommendations of relevant documents of the American Clinical and Laboratory Standards Institute (CLSI), the micro broth dilution method was used to determine the MIC of the compounds of the present invention against clinically isolated strains. • 3.1 Formulation of antibacterial drug: All the compounds of the present invention were dissolved in DMSO. The drug concentration range was 128 mg/L to 0.06 mg/L. • 3.2 Culture medium: The drug susceptibility test used cation adjusted Mueller-Hinton broth (CAMHB). • 3.3 Amount of inoculum: The test bacteria cultured overnight were adjusted to 0.5 McFarland turbidity by the direct colony suspension method, and diluted 100 folds, the final inoculum amount was 10^5 CFU/mL. • 3.4 Culture conditions: The test bacteria were cultured at 35±2° C. for 20 hours in air.
(§3) The drug susceptibility test results were interpretated by reference to CLSI 2019 M100 29th edition criteria.
(§4) The quality control strains of the drug susceptibility test were Escherichia coli ATCC 25922, Acinetobacter baumannii ATCC 19606, Staphylococcus aureus ATCC 29213, Klebsiella pneumoniae ATCC BAA-1705, ATCC 43816, ATCC BAA-2472, ATCC-BAA-1898, ATCC-BAA-1899, NCTC 13440 and ATCC-BAA-2470.
(§5) The results of drug susceptibility test were statistically analyzed by WHONET software (version 5.6).

[2] = system: Staphylococcus aureus (methicillin-resistant and sensitive clinical isolates; ATCC29213); assay: MIC by micro broth dilution (CLSI), Staphylococcus aureus
Text: as §1, §2, §3, §4, §5

[3] = system: Acinetobacter baumannii (carbapenem-resistant clinical isolates; ATCC19606); assay: MIC by micro broth dilution (CLSI), Acinetobacter baumannii; conditions: Acinetobacter baumannii; for MIC50 / MIC90: ATCC19606
Text: as §1, §2, §3, §4, §5

[4] = ATCC25922, Clinical strain, read-out: MIC50
[5] = ATCC25922, Clinical strain, read-out: MIC90
[6] = Standard strain ATCC25922, read-out: MIC
[7] = Clinical strain, read-out: MIC50
[8] = Clinical strain, read-out: MIC90
[9] = Standard strain ATCC29213, read-out: MIC
[10] = Standard strain ATCC19606, read-out: MIC
[11] = clinical strains, micro broth dilution, CAMHB, 35±2° C., 20 hours, read-out: MIC50 Escherichia coli Clinical strain
[12] = clinical strains, micro broth dilution, CAMHB, 35±2° C., 20 hours, read-out: MIC90 Escherichia coli Clinical strain
[13] = standard strain ATCC25922, micro broth dilution, CAMHB, 35±2° C., 20 hours, read-out: MIC Escherichia coli Standard strain ATCC25922
[14] = clinical strains, micro broth dilution, CAMHB, 35±2° C., 20 hours, read-out: MIC50 Staphylococcus aureus Clinical strain
[15] = clinical strains, micro broth dilution, CAMHB, 35±2° C., 20 hours, read-out: MIC90 Staphylococcus aureus Clinical strain
[16] = standard strain ATCC29213, micro broth dilution, CAMHB, 35±2° C., 20 hours, read-out: MIC Staphylococcus aureus Standard strain ATCC29213
[17] = clinical strains, micro broth dilution, CAMHB, 35±2° C., 20 hours, read-out: MIC50 Acinetobacter baumannii Clinical strain
[18] = clinical strains, micro broth dilution, CAMHB, 35±2° C., 20 hours, read-out: MIC90 Acinetobacter baumannii Clinical strain
[19] = standard strain ATCC19606, micro broth dilution, CAMHB, 35±2° C., 20 hours, read-out: MIC Acinetobacter baumannii Standard strain ATCC19606

| Structure (SMILES) | MIC50 [1, 4] | MIC90 [1, 5] | MIC [1, 6] | MIC50 [2, 7] | MIC90 [2, 8] | MIC [2, 9] | MIC50 [3, 7] | MIC90 [3, 8] | MIC [3, 10] | MIC50 [1, 11] | MIC90 [1, 12] | MIC [1, 13] | MIC50 [2, 14] | MIC90 [2, 15] | MIC [2, 16] | MIC50 [3, 17] | MIC90 [3, 18] | MIC [3, 19] |
| --- | --- | --- | --- | --- | --- | --- | --- | --- | --- | --- | --- | --- | --- | --- | --- | --- | --- | --- |
| CCN(CC)Cc1cnc2c(O)c([N+](=O)[O-])cc(Cl)c2c1.O=C(O)C(F)(F)F.O=C(O)C(F)(F)F [Example 90, 5-chloro-3-((diethylamino)methyl)-7-nitroquinolin-8-ol ditrifluoroacetate] | 64 µg/mL | > 128 µg/mL | 64 µg/mL | 32 µg/mL | 32 µg/mL | 32 µg/mL | 32 µg/mL | 128 µg/mL | 32 µg/mL | – | – | – | – | – | – | – | – | – |
| [2H]c1ccc2ccc([N+](=O)[O-])c(O)c2n1 [Example 116, 7-nitroquinolin-2-d-8-ol] | 16 µg/mL (≈ 83.7 µM) | 16 µg/mL (≈ 83.7 µM) | 8 µg/mL (≈ 41.8 µM) | 4 µg/mL (≈ 20.9 µM) | 8 µg/mL (≈ 41.8 µM) | 4 µg/mL (≈ 20.9 µM) | 4 µg/mL (≈ 20.9 µM) | 4 µg/mL (≈ 20.9 µM) | 4 µg/mL (≈ 20.9 µM) | – | – | – | – | – | – | – | – | – |
| O=[N+]([O-])c1c(F)cc2cccnc2c1O [Example 122, 6-fluoro-7-nitroquinolin-8-ol] | – | – | – | – | – | – | – | – | – | 64 µg/mL (≈ 307 µM) | 64 µg/mL (≈ 307 µM) | 64 µg/mL (≈ 307 µM) | 64 µg/mL (≈ 307 µM) | 64 µg/mL (≈ 307 µM) | 128 µg/mL (≈ 615 µM) | 64 µg/mL (≈ 307 µM) | 64 µg/mL (≈ 307 µM) | 64 µg/mL (≈ 307 µM) |
| CNc1c([N+](=O)[O-])c(O)c2ncccc2c1Cl [Example 7, 5-Chloro-6-(methylamino)-7-nitroquinolin-8-ol] | 64 µg/mL (≈ 252 µM) | 128 µg/mL (≈ 505 µM) | 64 µg/mL (≈ 252 µM) | 8 µg/mL (≈ 31.5 µM) | 16 µg/mL (≈ 63.1 µM) | 16 µg/mL (≈ 63.1 µM) | 32 µg/mL (≈ 126 µM) | 64 µg/mL (≈ 252 µM) | 64 µg/mL (≈ 252 µM) | – | – | – | – | – | – | – | – | – |
| O=[N+]([O-])c1c(Br)c(F)c2cccnc2c1O [Example 124, 6-bromo-5-fluoro-7-nitroquinolin-8-ol] | – | – | – | – | – | – | – | – | – | 16 µg/mL (≈ 55.7 µM) | 64 µg/mL (≈ 223 µM) | 8 µg/mL (≈ 27.9 µM) | 4 µg/mL (≈ 13.9 µM) | 4 µg/mL (≈ 13.9 µM) | 4 µg/mL (≈ 13.9 µM) | 4 µg/mL (≈ 13.9 µM) | 8 µg/mL (≈ 27.9 µM) | 8 µg/mL (≈ 27.9 µM) |
| O=[N+]([O-])c1c(Cl)c(Cl)c2cccnc2c1O [Example 115, 5,6-dichloro-7-nitroquinolin-8-ol] | 64 µg/mL (≈ 247 µM) | 64 µg/mL (≈ 247 µM) | 16 µg/mL (≈ 61.8 µM) | 1 µg/mL (≈ 3.86 µM) | 1 µg/mL (≈ 3.86 µM) | 2 µg/mL (≈ 7.72 µM) | 4 µg/mL (≈ 15.4 µM) | 4 µg/mL (≈ 15.4 µM) | 4 µg/mL (≈ 15.4 µM) | – | – | – | – | – | – | – | – | – |
| O=[N+]([O-])c1ccc2cc(CN3CCCCC3)cnc2c1O [Example 95, 7-nitro-3-(piperidin-1-ylmethyl)quinolin-8-ol] | 64 µg/mL (≈ 223 µM) | 64 µg/mL (≈ 223 µM) | 64 µg/mL (≈ 223 µM) | 64 µg/mL (≈ 223 µM) | 64 µg/mL (≈ 223 µM) | 64 µg/mL (≈ 223 µM) | 64 µg/mL (≈ 223 µM) | 64 µg/mL (≈ 223 µM) | 32 µg/mL (≈ 111 µM) | – | – | – | – | – | – | – | – | – |
| O=[N+]([O-])c1ccc2cc(CN3CCOCC3)cnc2c1O [Example 97, 3-(morpholinomethyl)-7-nitroquinolin-8-ol] | > 128 µg/mL | > 128 µg/mL | > 128 µg/mL | 128 µg/mL (≈ 442 µM) | 128 µg/mL (≈ 442 µM) | 128 µg/mL (≈ 442 µM) | 128 µg/mL (≈ 442 µM) | > 128 µg/mL | 128 µg/mL (≈ 442 µM) | – | – | – | – | – | – | – | – | – |
| O=[N+]([O-])c1cc(Cl)c2cc(CN3CCCCC3)cnc2c1O [Example 92, 5-chloro-7-nitro-3-(piperidin-1-ylmethyl)quinolin-8-ol] | > 128 µg/mL | > 128 µg/mL | 64 µg/mL (≈ 199 µM) | 16 µg/mL (≈ 49.7 µM) | 16 µg/mL (≈ 49.7 µM) | 16 µg/mL (≈ 49.7 µM) | 32 µg/mL (≈ 99.5 µM) | 128 µg/mL (≈ 398 µM) | 32 µg/mL (≈ 99.5 µM) | – | – | – | – | – | – | – | – | – |

— patent US20240246916A1, “7-NITRO-8-HYDROXYQUINOLINE DERIVATIVES, PREPARATION METHOD THEREFORE AND MEDICAL USE THEREOF” (Jiangsu Yahong Meditech Co., Ltd., priority 2021, published 2024)
